Values quoted from earlier work in US6825231B2, “Substituted norbornylamino derivatives, processes for their preparation, their use as medicaments or diagnostics, and a medicament comprising them” (Aventis Pharma Deutschland GmbH, priority 1999, dated 2004).

Target: NHE3 (Oryctolagus cuniculus, UniProt P26432)
Conditions: literature: Donowitz et al. Am. J. Physiol. 276: C136-C144; cited from earlier work

NHE3, sequence (P26432 30-832): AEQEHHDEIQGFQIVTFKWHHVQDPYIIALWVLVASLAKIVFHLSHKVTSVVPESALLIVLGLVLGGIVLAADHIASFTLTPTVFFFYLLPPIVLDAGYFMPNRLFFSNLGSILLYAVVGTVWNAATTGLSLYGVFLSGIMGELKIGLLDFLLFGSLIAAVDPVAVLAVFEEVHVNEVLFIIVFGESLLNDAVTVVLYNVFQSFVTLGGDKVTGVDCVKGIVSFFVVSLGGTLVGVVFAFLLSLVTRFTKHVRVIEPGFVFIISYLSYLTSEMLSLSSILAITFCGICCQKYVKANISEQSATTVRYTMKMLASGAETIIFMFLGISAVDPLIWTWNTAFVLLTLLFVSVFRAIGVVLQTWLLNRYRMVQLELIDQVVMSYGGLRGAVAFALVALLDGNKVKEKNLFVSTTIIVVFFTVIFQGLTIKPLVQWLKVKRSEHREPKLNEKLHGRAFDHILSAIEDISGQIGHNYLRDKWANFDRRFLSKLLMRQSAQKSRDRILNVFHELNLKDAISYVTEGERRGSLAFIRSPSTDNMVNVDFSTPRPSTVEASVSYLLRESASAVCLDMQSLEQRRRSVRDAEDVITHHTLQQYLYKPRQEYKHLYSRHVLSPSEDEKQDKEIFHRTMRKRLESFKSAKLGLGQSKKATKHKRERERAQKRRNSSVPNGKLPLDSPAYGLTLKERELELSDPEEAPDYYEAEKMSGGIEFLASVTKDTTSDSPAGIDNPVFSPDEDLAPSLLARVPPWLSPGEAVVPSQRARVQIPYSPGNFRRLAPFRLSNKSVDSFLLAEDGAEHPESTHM

CC(C)[C@@H](CC[C@@H](C)[C@H]1CC[C@H]2[C@@H]3[C@H](O)C[C@H]4C[C@@H](NCCCNCCCCN)CC[C@]4(C)[C@H]3CC[C@]12C)OS(=O)(=O)O [squalamine]
delay of NHE3 inhibitory activity: activity seen after one hour
